Structures can show the parent of a compound that is named as a salt. Activity calls are given as the source filed them.
Legend:
[1] = HEK-293T cell viability reduction – luminescence, B-cell screen hits, cytotoxicity control for BCR NF-kB inhibitor project, dose response (AID 489021); format: functional, cell-based;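 also: HEK-293T cells carrying an NF-kB luciferase reporter; cells exposed to compound for about 14 hours before viability readout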
[2] = biological target: T1, Neuropeptides B/W receptor type 1 (Homo sapiens, UniProt P48145); test: Fluorescence-based dose response cell-based high throughput screening assay to identify antagonists of the G-protein coupled receptor 7 (GPR7). [Related pubchem assays: 1952 (Screening assay (GPR7 antagonists).), 1880 (Summary AID.)]; format: functional
T1 sequence (P48145 whole entry): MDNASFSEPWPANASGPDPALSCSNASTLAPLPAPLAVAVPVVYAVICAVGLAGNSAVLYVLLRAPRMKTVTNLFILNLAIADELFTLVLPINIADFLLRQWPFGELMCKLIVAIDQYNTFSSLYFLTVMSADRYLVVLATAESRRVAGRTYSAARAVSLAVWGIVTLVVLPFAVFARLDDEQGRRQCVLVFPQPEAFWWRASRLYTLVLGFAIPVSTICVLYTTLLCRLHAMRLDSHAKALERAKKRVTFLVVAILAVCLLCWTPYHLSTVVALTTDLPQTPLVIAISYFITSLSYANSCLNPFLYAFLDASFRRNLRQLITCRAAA

[3] = biological target: T2, Melanin-concentrating hormone receptor 1 (Homo sapiens, UniProt Q99705); test: Fluorescence-based counterscreen for antagonists of the G-protein coupled receptor 7 (GPR7): cell-based high throughput dose response assay to identify antagonists of the melanin-concentrating hormone receptor 1 (MCHR1).; format: functional
T2 sequence (Q99705 whole entry): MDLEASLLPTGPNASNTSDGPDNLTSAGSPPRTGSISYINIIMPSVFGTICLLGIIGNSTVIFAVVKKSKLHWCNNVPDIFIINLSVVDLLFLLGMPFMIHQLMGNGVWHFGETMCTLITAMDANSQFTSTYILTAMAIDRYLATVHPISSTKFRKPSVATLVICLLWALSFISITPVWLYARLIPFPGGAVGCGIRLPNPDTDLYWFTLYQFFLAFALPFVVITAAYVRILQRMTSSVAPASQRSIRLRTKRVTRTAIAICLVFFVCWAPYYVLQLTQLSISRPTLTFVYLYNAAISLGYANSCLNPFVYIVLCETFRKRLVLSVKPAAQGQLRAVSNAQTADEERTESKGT

[4] = test system: BJ; test: cells; format: functional, cell-based; conditions: Homo sapiens
[5] = DRD fibroblast viability loss – cell-based, non-viral oncogenic, luminescence, dose response (AID 1934); format: functional; conditions: Homo sapiens
[6] = biological target: T3, Galanin receptor type 3 (Homo sapiens, UniProt O60755); test: Fluorescence-based cell-based primary high throughput dose response assay to identify antagonists of the Galanin Receptor 3 (GalR3).; format: functional
T3 sequence (O60755 whole entry): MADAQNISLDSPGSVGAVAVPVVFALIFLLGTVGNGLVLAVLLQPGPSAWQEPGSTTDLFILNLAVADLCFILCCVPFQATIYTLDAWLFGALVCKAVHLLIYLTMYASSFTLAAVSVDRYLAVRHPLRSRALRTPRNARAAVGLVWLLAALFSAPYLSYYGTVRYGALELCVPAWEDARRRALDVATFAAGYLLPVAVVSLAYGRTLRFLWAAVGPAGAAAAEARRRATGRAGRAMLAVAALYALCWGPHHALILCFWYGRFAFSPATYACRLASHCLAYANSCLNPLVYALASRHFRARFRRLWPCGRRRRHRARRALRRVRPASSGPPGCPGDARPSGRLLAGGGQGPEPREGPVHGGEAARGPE

[7] = test system: Streptococcus; test: GAS UMAA2166 growth inhibition – luminescence, BacTiterGlo, counter-screen for streptokinase expression inhibitor project, dose response (AID 1915); format: functional, organism-based;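 also: potency for reduction of bacterial viability or growth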
[8] = cells; format: functional, cell-based; conditions: HEK-CNG
[9] = biological target: T4, Streptokinase A (Streptococcus pyogenes serotype M1, UniProt P10520); test: viability-normalized secreted streptokinase activity reduction – plasminogen activation absorbance, OD405, dose response (AID 1914); format: functional, Streptococcus pyogenes M1 GAS;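 also: secreted streptokinase activity via plasminogen activation per viability signal from cell pellet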
T4 sequence (P10520 whole entry): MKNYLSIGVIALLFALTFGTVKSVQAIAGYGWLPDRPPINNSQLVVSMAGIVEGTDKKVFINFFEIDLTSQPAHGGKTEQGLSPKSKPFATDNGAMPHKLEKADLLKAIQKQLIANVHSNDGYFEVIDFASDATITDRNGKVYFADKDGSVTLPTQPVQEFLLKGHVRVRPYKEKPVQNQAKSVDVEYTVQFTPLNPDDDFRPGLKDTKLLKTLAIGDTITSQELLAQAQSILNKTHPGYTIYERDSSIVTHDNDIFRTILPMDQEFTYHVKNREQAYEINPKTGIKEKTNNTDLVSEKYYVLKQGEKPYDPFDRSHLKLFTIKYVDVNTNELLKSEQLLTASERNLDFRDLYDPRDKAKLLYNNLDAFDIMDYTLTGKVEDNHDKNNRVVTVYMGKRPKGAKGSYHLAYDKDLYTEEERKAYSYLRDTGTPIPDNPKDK

[10] = test system: Streptococcus sp. 'group A'; test: Streptococcus pyogenes SK(-)GAS viability under kanamycin – luminescence, BacTiterGlo, confirmation, counter-screen for streptokinase expression inhibitor project, dose response (AID 1900); format: functional, organism-based
[11] = Luminescence Cell-Based Dose Retest to Confirm Inhibitors of Cancer Stem Cells. [Related pubchem assays (depositor defined):AID2717, AID2721]; format: functional; conditions: Homo sapiens
[12] = test system: BJ; test: BJ-TERT fibroblast viability loss – cell-based, RAS-independent, luminescence, dose response (AID 1933); format: functional; conditions: Homo sapiens
[13] = test system: BJ; test: BJ-TERT-LT-ST fibroblast viability loss – cell-based, RAS-independent, luminescence, dose response (AID 1935); format: functional; conditions: Homo sapiens;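 also: BJ fibroblasts immortalized with TERT plus LT and ST oncogenes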
[14] = biological target: T5, Voltage-gated N-type calcium channel alpha-1B subunit/Amyloid beta A4 precursor protein-binding family A member 1 (Homo sapiens, UniProt Q00975+Q02410); format: protein assay
T5 sequence (Q00975 whole entry): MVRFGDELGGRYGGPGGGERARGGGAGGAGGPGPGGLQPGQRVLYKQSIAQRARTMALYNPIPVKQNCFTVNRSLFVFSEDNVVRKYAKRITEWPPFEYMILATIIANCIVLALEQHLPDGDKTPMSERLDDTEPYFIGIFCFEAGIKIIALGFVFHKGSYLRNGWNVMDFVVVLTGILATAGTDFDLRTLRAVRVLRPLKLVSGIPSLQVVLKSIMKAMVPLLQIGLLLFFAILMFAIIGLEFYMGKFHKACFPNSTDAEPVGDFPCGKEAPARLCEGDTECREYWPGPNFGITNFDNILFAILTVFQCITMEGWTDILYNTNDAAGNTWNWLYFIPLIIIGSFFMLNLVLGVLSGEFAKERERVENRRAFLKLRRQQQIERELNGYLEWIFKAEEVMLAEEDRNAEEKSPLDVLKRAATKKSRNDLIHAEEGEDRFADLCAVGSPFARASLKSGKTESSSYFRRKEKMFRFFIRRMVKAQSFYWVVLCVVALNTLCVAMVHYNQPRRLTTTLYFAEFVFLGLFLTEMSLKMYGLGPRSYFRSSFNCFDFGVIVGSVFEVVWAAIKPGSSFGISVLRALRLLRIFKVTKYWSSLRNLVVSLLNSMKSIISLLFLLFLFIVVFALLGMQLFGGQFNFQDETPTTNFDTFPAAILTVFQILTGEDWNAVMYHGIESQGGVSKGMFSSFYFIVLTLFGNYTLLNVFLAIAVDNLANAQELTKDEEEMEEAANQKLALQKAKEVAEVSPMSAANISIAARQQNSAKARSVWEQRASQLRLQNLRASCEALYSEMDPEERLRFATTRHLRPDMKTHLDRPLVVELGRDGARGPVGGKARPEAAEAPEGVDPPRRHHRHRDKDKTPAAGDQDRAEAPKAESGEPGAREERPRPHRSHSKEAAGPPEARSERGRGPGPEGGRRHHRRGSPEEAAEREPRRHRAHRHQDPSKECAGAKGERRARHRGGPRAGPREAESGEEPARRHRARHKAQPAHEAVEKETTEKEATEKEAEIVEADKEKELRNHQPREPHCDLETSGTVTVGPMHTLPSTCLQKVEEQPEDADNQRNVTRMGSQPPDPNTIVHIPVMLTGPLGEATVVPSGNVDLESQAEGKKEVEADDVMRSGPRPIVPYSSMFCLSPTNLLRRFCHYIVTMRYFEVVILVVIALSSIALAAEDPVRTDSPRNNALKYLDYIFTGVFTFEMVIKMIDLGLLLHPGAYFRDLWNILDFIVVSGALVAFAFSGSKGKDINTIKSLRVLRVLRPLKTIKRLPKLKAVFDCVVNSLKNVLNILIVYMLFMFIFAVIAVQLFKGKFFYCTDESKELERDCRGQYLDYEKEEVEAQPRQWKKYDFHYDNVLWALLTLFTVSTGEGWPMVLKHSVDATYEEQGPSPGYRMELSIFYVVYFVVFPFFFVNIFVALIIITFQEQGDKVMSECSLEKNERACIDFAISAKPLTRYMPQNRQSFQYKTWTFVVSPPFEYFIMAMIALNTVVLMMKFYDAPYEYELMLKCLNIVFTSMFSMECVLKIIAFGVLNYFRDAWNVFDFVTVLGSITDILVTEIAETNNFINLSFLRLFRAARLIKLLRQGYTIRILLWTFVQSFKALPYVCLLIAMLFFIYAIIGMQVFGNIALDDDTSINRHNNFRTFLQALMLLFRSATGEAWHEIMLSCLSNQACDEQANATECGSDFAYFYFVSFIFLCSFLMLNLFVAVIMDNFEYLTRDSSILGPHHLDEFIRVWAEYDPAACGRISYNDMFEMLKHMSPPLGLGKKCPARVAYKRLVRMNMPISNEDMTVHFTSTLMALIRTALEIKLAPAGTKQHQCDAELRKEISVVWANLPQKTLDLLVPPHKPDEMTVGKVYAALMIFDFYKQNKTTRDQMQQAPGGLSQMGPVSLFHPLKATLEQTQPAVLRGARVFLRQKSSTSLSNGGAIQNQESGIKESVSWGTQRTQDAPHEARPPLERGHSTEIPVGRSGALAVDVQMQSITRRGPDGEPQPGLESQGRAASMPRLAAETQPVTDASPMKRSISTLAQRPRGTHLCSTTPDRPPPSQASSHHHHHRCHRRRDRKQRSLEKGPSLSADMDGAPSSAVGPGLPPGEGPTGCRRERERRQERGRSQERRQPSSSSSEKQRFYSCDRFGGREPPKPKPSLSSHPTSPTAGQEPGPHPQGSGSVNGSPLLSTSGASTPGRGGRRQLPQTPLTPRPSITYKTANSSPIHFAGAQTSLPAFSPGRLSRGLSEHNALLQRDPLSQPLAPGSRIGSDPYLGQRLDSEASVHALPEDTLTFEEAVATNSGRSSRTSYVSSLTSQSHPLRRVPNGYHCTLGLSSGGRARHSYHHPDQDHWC
T5 sequence (Q02410 whole entry): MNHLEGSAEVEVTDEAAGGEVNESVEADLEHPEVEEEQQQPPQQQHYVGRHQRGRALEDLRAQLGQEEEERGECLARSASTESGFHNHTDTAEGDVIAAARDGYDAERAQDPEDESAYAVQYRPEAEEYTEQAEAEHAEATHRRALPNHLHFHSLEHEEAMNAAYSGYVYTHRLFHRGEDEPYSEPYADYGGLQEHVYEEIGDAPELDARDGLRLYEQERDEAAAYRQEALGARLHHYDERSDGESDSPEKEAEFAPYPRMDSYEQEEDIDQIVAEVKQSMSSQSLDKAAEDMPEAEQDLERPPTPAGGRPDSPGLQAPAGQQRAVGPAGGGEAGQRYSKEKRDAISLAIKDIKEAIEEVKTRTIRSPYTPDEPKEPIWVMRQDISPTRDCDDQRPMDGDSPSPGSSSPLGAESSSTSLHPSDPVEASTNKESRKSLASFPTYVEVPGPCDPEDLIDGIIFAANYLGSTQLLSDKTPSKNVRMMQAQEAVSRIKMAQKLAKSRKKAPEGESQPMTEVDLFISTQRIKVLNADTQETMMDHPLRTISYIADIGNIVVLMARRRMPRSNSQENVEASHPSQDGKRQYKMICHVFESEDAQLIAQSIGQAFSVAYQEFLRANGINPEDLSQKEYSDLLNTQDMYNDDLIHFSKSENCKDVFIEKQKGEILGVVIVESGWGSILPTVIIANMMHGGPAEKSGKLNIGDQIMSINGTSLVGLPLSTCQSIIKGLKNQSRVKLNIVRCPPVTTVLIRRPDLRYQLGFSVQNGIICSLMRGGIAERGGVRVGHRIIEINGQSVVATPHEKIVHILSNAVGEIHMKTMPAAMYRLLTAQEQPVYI

[15] = biological target: T5, Voltage-gated N-type calcium channel alpha-1B subunit/Amyloid beta A4 precursor protein-binding family A member 1; format: protein assay; remark: listed apart in the source
[16] = biological target: Trypsin (Sus scrofa, UniProt P00761); test: trypsin protease activity blockade – biochemical, quenched peptide fluorescence, cherry-pick, selectivity assay for Rce1 protease inhibitor project, dose response (AID 488789)
Trypsin, sequence (P00761 whole entry): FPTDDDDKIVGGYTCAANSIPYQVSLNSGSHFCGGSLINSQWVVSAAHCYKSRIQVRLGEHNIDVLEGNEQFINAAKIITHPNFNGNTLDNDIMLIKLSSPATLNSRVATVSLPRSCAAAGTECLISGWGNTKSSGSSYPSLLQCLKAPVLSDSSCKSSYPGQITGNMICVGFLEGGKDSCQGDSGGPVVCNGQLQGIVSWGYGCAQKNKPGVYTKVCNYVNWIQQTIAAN

[17] = biological target: T6, CAAX prenyl protease 2 (Homo sapiens, UniProt Q9Y256); test: inhibition of Ras-converting CAAX protease Rce1 – biochemical, yeast membranes, quenched-peptide fluorescence, cherry-pick, dose response (AID 588849)
T6 sequence (Q9Y256 whole entry): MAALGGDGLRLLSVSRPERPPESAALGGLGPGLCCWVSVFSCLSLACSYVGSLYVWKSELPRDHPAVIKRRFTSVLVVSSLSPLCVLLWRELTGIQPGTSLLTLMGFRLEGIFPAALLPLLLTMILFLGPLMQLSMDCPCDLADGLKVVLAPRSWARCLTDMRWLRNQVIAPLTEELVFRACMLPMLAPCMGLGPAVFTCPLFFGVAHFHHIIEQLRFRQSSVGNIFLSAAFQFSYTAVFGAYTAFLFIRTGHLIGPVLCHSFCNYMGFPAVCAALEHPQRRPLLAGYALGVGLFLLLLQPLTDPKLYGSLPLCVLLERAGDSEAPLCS

[18] = biological target: T2, Melanin-concentrating hormone receptor 1; test: Late-stage fluorescence-based counterscreen for antagonists of the G-protein coupled receptor 7 (GPR7): cell-based dose response assay to identify antagonists of the melanin-concentrating hormone receptor 1 (MCHR1). [Related pubchem assays (depositor defined):AID1861, AID1880, AID1952, AID2148, AID2251, AID2257, AID485339]; format: functional
[19] = biological target: T7, Orexin/Hypocretin receptor type 1 (Homo sapiens, UniProt O43613); test: (§1) Fluorescence-based cell-based high throughput dose response assay for antagonists of the orexin 1 receptor (OX1R; HCRTR1). [Related pubchem assays (depositor defined):AID434989, AID435008, AID463079, AID485270, AID492963, AID492964, AID492965, AID493232, AID504717, AID504718]; format: functional
T7 sequence (O43613 whole entry): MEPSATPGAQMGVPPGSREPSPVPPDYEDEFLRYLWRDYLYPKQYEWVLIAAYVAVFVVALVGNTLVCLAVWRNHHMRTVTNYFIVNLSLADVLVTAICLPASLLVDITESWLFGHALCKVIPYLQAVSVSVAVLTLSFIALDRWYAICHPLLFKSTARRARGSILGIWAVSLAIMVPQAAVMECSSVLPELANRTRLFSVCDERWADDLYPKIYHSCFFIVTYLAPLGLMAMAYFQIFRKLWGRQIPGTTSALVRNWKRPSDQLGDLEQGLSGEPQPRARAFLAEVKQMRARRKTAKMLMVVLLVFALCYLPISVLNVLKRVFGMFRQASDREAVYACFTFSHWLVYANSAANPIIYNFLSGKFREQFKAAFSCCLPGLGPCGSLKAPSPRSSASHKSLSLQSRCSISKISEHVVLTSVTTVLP

[20] = (§2) Counterscreen for antagonists of the orexin 1 receptor (OX1R; HCRTR1): Fluorescence-based cell-based high throughput dose response assay to identify antagonists of the parental CHO cell line. [Related pubchem assays (depositor defined):AID434989, AID435008, AID463079, AID485270, AID492963, AID492964, AID492965, AID493232, AID504699, AID504701]; format: functional
[21] = test system: CHO-K1; test: as §2, with “Homogeneous time resolved fluorescence (HTRF)-based” for “Fluorescence-based”, “cell-based” for “cell-based high throughput”, “CHO-K1” for “CHO”; format: functional; conditions: Cricetulus griseus;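 also: potency for inhibition of ATP-stimulated IP1 production as antagonists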
[22] = biological target: T7, Orexin/Hypocretin receptor type 1; test: as §1, with “Homogeneous Time Resolved Fluorescence (HTRF)-based” for “Fluorescence-based”; format: functional
[23] = biological target: T8, Bcl-2-related protein A1 (Mus musculus, UniProt Q07440); format: functional;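 also: confirmatory dose–response counterscreen on Bfl-1, used to check hits from a UBC13 polyubiquitin inhibitor campaign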
T8 sequence (Q07440 whole entry): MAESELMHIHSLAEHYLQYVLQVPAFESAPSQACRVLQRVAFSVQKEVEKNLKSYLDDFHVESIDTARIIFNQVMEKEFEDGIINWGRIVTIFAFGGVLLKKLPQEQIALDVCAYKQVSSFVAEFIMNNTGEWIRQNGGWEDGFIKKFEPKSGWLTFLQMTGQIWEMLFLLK

[24] = viability loss in HeLa cells – cytotoxicity control for MgcRacGAP inhibitor project, dose response (AID 624300); format: functional
[25] = biological target: T9, Ubiquitin-conjugating enzyme E2 N (Homo sapiens, UniProt P61088); format: functional
T9 sequence (P61088 whole entry): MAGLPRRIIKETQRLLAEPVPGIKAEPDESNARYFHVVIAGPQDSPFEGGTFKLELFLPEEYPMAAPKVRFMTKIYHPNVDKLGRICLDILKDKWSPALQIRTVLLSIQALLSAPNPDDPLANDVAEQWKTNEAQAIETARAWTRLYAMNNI

[26] = biological target: T9, Ubiquitin-conjugating enzyme E2 N; format: functional; remark: listed apart in the source
[27] = biological target: T10, Rac GTPase-activating protein 1 (Homo sapiens, UniProt Q9H0H5); test: blockers of MgcRacGAP-driven Rac1 GTP hydrolysis – biochemical, ADP Hunter fluorescence, primary and confirmatory, confirmation (AID 624330); format: functional
T10 sequence (Q9H0H5 whole entry): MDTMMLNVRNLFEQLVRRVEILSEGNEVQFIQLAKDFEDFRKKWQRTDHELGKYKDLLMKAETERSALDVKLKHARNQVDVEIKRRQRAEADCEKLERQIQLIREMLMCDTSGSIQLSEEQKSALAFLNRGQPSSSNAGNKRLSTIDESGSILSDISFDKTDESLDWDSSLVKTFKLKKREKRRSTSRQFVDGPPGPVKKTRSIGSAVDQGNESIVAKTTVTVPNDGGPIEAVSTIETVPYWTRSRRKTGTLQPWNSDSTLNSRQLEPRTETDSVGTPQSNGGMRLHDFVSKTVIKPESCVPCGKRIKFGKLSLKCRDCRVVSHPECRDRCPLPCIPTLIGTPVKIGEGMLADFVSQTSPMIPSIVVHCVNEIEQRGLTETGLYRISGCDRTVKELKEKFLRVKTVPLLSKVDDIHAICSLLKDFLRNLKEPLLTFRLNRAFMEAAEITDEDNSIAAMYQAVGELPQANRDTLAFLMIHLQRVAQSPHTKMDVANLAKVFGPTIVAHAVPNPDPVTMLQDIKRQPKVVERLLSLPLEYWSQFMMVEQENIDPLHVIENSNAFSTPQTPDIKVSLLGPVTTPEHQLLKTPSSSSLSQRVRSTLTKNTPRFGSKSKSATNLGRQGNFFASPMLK

Cc1ccc(S(=O)(=O)Nc2ccc3c(c2)n(C)c(=O)n3C)cc1
IC50 [1]: > 80 µM (inactive)

Cc1ccccc1NC(=O)C1CCCN(c2ncnc3onc(-c4ccc(F)cc4)c23)C1 (stereo not drawn)
IC50 [2]: > 43.8 µM (not active) | IC50 [3]: > 43.8 µM (not active)

Cc1ccc(CN2C(=O)c3ccccc3Sc3ccc(C(=O)NCCCN4CCOCC4)cc32)cc1
IC50 [2]: 6.89 µM (active) | IC50 [3]: 10.4 µM (not active)

Cc1ccccc1-c1cc(C(=O)Nc2sc(C(=O)OC(C)C)c(C)c2C#N)c2ccccc2n1
EC50 [4]: > 150 µM (inconclusive) | EC50 [5]: 42.3 µM (active) | IC50 [6]: 967 nM (active) | EC50 [7]: 26 µM (active) | EC50 [8]: > 29.9 µM (inactive) | EC50 [9]: > 150 µM (not active) | EC50 [10]: 14.6 µM (active) | AC50 [11]: 246 nM (active) | EC50 [12]: > 150 µM (not active) | EC50 [13]: > 75 µM (inconclusive) | IC50 [14]: > 50 µM (inactive) | IC50 [1]: 45.6 µM (inactive) | IC50 [15]: 17.9 µM (active)

CCOc1cc(-c2nc3c(C)cccn3c2NCC2CCCO2)ccc1O.CNC (stereo not drawn)
AC50 [16]: 12.7 µM (active) | AC50 [17]: 15.1 µM (active)

Cc1ccc(C(=O)CSc2nnc(COc3ccccc3)o2)cc1
IC50 [1]: > 80 µM (inactive)

COc1ccc(Oc2c(Cl)cnn(-c3ccc(C(C)(C)C)cc3)c2=O)cc1
IC50 [18]: 2.7 µM (active)

COc1ccc(Oc2c(-c3cccs3)cnn(-c3ccc(C)cc3)c2=O)cc1
IC50 [18]: > 20 µM (inactive)

CN(Cc1c(C(=O)N/N=C/c2cccc(O)c2)nnn1-c1nonc1N)c1ccccc1
IC50 [19]: 5.74 µM (active) | IC50 [20]: 24.2 µM (inactive) | IC50 [21]: > 66.2 µM (inactive) | IC50 [22]: 1.04 µM (active)

O=C(c1ccc(OCCN2CCCCC2)cc1)c1c(-c2ccc(O)cc2)sc2cc(O)ccc12 [RALOXIFENE HYDROCHLORIDE]
IC50 [23]: > 20 µM (inactive) | CC50 [24]: 99.6 µM (active) | IC50 [25]: 17.5 µM (active) | IC50 [26]: 14.2 µM (active) | IC50 [27]: 27.8 µM (active) | AC50 [11]: 1750 nM (active)
